Source: patent publication US9394561B2, “Cyclic peptide production” (National Research Council of Canada, priority 2011, dated 2016)
“Also recorded” adds a separate entry of the source. Square brackets hold non-standard residues; d marks the D form. Ends that are not written are not given here.

What was measured:
S. vaccaria PCY1 = assay: In vitro assay of recombinant S. vaccaria PCY1 with wild type and mutant presegetalin substrates, products detected by LC/MS; format: biochemical, Saponaria vaccaria; design: key to CP (cyclic peptide product detected by LC/MS after in vitro assay) / LP (linear peptide product detected by LC/MS after in vitro assay): +=presence; −=absence; conditions: for cyclic peptide production by S. vaccaria PCY1 (in words) / linear peptide production by S. vaccaria PCY1 (in words): LC/MS and MS/MS; for CP (cyclic peptide product detected by LC/MS after in vitro assay) / LP (linear peptide product detected by LC/MS after in vitro assay): substrates tested for cyclization by S. vaccaria PCY1
Chain of S. vaccaria PCY1 (as listed by the source): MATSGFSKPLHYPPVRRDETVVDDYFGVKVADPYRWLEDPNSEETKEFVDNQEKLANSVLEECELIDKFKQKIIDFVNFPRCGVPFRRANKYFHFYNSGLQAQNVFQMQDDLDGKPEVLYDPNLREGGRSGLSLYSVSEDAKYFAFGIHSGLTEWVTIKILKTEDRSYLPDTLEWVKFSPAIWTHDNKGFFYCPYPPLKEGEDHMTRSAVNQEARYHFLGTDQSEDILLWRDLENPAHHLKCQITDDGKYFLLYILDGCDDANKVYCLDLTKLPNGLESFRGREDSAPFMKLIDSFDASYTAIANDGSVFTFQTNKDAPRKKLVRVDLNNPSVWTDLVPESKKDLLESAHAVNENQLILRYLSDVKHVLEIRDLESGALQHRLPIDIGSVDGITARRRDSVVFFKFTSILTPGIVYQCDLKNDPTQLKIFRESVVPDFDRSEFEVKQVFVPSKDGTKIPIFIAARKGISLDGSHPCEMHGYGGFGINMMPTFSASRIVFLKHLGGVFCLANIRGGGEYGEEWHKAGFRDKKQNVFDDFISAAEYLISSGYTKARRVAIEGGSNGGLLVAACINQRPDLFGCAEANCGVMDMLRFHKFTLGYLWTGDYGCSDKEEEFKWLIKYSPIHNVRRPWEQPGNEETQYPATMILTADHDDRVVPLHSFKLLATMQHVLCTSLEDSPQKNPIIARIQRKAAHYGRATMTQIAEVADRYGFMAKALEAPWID
Method: The gene corresponding to S. vaccaria PCY1 was cloned and expressed in E. coli with a His-tag. HisPur Cobalt Resin™ (Thermo Scientific) was used for purification of recombinant PCY1. The purified PCY1 was quantified using BCA method (Pierce; http://http://www.piercenet.com/) with BSA as a calibration standard. The in vitro assay contained 20 mM Tris buffer (pH 8.5), 100 mM NaCl, 5 mM DTT, 0.2 mg BSA, and 1.5 μg of substrates (wild type and mutant presegetalins, procured from Bio Basic Inc with >90% purity) and was initiated by the addition of 0.3 μg of PCY1, in a total reaction volume of 100 μl. The assay was incubated at 30° C. for up to 1 h and stopped by placing reactions in dry ice. The assays were lyophilized, re-suspended in methanol, evaporated and re-suspended in 50:50 v/v methanol/water for LC/MS analysis.
Ion trap ESI+ LC/MS/MS analysis was used to detect production of cyclic peptides using an Agilent 6320 Ion Trap LC/MS system under default Smart Parameter settings. The analyzer and ion optics were adjusted to achieve proper resolution (Agilent Installation Guide #G2440-90105) using the ESI Tuning Mix (Agilent #G2431A). The mass spectrometer scanned from 50 to 2200 mass units at 8100 mass units sec^−1 with an expected peak width of 0.35 atomic mass units. For auto MS/MS, the trap isolation width was 4 atomic mass units. The associated Agilent 1200 LC was fitted with a Zorbax 300 EXTEND-C18 column (150×2.1 mm, 3.5 μm particle size) maintained at 35° C. The binary solvent system consisted of 90:10 v/v water/acetonitrile containing 0.1% formic acid and 0.1% ammonium formate (solvent A) and 10:90 v/v water/acetonitrile containing 0.1% formic acid and 0.1% ammonium formate (solvent B). The separation gradient was 90:10 A/B to 50:50 A/B in 3 ml over 20 min.
In order to characterize substrate specificity of PCY1 and understand the segetalin A biosynthetic mechanism, a total of 44 substrates (Table 3) were tested for the PCY1 activity and the results are briefly summarized in Table 3. The last two columns in Table 3 summarize product type detected by LC/MS after in vitro assays (CP is cyclic peptide and LP is linear peptide, +=presence, −=absence, NA=not applicable). The 44 substrates were classified as follows: • (A) Presegetalin A1 [14,32], a wild type (WT) precursor of segetalin A • (B) Truncated mutants of presegetalin A1[14,32] • (C) Alanine scanning mutants corresponding to variants of the mature segetalin A sequence • (D) Alanine scanning mutants of the C-terminal region of presegetalin A1[14,32] • (E) D-amino acid mutants corresponding to variants of the mature segetalin A sequence • (F) Insertion mutants corresponding to variants of the mature segetalin A sequence • (G) Other A-class and F-class presegetalins • (H) Putative cyclic peptide precursors from Dianthus caryophyllus

[1] = system: Dianthus superbus PCY1-c1141; assay: In vitro assay of recombinant Dianthus superbus PCY1-c1141 with presegetalin substrates, LC/MS; format: biochemical
Chain of Dianthus superbus PCY1-c1141 (as listed by the source): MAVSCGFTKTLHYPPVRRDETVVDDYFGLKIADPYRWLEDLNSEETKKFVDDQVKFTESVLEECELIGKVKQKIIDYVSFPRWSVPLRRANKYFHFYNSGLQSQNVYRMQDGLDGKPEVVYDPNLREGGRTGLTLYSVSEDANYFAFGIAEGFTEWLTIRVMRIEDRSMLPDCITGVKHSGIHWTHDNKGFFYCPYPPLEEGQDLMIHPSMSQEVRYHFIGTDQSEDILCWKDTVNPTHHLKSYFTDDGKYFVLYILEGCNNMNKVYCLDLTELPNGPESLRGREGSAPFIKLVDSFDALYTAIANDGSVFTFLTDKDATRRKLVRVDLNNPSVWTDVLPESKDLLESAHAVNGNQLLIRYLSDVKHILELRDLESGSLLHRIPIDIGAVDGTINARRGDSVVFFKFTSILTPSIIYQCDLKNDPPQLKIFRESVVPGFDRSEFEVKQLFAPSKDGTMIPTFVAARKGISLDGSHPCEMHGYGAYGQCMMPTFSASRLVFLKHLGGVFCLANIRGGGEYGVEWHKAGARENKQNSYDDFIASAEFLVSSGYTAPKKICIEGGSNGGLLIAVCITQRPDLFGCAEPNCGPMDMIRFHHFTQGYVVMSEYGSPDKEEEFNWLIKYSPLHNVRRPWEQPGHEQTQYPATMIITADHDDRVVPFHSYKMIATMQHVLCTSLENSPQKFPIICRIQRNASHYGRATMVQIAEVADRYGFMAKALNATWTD
Excerpt: (§1) To test for activity of the homologues of S. vaccaria PCY1, two cDNAs encoding were cloned from Dianthus superbus (c250 and c1141 contigs) and one from Silene vulgaris (c150 contig) essentially as described for Saponaria vaccaria PCY1 in Example 2. These were named Dianthus superbus Pcy1-c250, Dianthus superbus Pcy1-c1141 and Silene vulgaris Pcy1-c150, Briefly, gene specific forward and reverse primers were used to PCR amplify the aforementioned contigs based on homologue identification in EST collections from Dianthus leaves and Silene roots. The Dianthus superbus (c250 and c1141 contigs) and Silene vulgaris (c150 contig) PCY1 homologues were assayed with 15 μg/mL presegetalin A1[14,32] in vitro as previously described for semi-purified plant extracts to determine whether they can catalyze the production of segetalin A from presegetalin A1[14,32]. The assays were initiated by the addition of 120 ng (c250), or 138 ng (c1141) purified recombinant Dianthus superbus or 4 μg Silene vulgaris Pcy1 respectively, in a total reaction volume of 100 μL. […] Thus, there are additional enzymes in the Caryophyllaceae family, which have the same enzymatic activity as S. vaccaria PCY1.
Seven mutant peptides containing D-amino acids were synthesized (No. 26 to 32 in Table 3) and tested with S. vaccaria PCY1 under optimized in vitro conditions. In initial experiments, each amino acid corresponding to segetalin A was substituted with its D-amino acid consecutively from position 15 to 19 (No. 26 to 30). Glycine at position 14 is achiral and no substitution was required. […] To test this possibility two peptides were synthesized No. 31 and No. 32 in Table 3. […] The cyclic peptides were detected as diagnostic ions (M+H)^+ and (M+Na)^+ in LC/MS and their presence was further confirmed by MS/MS analysis. […] The cyclic peptide produced from No. 32 has alternating D- and L-forms of amino acids (with the exception of the glycine), which gives it the potential to self-assemble into nanotube under appropriate conditions (Gadhiri 1993).

[2] = system: Dianthus superbus PCY1-c250; assay: In vitro assay of recombinant Dianthus superbus PCY1-c250 with presegetalin substrates, LC/MS; format: biochemical
Chain of Dianthus superbus PCY1-c250 (as listed by the source): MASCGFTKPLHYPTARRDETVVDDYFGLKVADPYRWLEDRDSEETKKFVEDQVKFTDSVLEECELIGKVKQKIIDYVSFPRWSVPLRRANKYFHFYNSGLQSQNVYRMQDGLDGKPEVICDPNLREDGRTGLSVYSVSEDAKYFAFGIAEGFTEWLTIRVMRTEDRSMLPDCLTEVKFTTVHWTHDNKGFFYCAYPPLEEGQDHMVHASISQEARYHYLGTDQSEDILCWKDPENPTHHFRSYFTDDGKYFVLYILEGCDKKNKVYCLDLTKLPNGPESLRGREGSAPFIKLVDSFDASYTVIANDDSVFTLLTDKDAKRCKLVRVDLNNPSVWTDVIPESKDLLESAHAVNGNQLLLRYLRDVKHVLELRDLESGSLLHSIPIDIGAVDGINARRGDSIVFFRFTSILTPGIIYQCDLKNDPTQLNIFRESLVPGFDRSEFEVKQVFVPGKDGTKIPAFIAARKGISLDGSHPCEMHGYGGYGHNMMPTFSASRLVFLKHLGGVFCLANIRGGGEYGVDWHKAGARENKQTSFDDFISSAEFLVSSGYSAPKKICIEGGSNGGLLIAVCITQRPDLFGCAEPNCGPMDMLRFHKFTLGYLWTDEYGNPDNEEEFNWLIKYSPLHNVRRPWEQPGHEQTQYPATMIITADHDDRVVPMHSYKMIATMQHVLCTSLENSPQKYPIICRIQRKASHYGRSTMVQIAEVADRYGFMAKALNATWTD
Excerpt: as §1
Dianthus superbus PCY1-c250 was also assayed with the alanine scan mutants and the activities were compared with those of S. vaccaria PCY1.

[3] = system: Silene vulgaris Pcy1-c150; assay: In vitro assay of recombinant Silene vulgaris PCY1-c150 with presegetalin A1[14,32], LC/MS; format: biochemical; conditions: 15 μg/mL presegetalin A1[14,32], 4 μg enzyme
Chain of Silene vulgaris Pcy1-c150 (as listed by the source): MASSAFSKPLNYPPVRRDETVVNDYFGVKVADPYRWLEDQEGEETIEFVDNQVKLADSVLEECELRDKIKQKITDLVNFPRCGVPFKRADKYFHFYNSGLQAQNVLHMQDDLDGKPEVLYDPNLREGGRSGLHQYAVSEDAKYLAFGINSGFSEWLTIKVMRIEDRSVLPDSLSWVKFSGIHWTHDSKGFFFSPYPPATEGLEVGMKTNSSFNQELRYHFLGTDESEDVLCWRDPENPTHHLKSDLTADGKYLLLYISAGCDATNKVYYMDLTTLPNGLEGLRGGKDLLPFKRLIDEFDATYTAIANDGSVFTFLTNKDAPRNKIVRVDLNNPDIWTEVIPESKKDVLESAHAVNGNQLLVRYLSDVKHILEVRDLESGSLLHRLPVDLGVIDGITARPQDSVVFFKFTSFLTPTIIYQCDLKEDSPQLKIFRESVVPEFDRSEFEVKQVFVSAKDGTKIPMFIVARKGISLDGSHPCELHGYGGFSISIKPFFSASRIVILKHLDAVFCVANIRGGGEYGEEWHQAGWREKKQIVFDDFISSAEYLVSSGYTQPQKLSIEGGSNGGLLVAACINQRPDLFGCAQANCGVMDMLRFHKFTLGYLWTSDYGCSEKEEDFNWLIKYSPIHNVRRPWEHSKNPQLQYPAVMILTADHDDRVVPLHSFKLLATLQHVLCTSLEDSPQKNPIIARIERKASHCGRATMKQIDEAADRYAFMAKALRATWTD
Excerpt: as §1

Q: With “32 (GV[dP]V[dA]AFQAKDVENASAPV) [compound 32]” as the substance, how does the “cyclic peptide production by S. vaccaria PCY1 (in words)” value (S. vaccaria PCY1) read?
A: made cyclic peptides

Q: And the “CP (cyclic peptide product detected by LC/MS after in vitro assay)” value (“CP” below) (S. vaccaria PCY1)?
A: +

Q: And the “LP (linear peptide product detected by LC/MS after in vitro assay)” value (“LP” for short) (S. vaccaria PCY1)?
A: −

Q: What about the “cyclic peptide production by D. superbus PCY1-c1141 (in words)” value [1] of the same substance?
A: made cyclic peptides; also recorded: relatively more active; also recorded: higher than the activity of S. vaccaria PCY1

Q: Which results are given for “11 (GVPVAAFQAKDVENASAPV; Presegetalin A1[14,32] variant aa18 = alanine) [compound 11]”?
A: CP (cyclic peptide product detected by LC/MS after in vitro assay) (S. vaccaria PCY1): +; LP (linear peptide product detected by LC/MS after in vitro assay) (S. vaccaria PCY1): −; cyclic peptide production by D. superbus PCY1-c250 (in words) [2]: relatively more cyclic peptide than did S. vaccaria PCY1

Q: Which results are given for “7 (AVPVWAFQAKDVENASAPV; Presegetalin A1[14,32] variant aa14 = alanine) [compound 7]”?
A: cyclic peptide production by S. vaccaria PCY1 (in words) (S. vaccaria PCY1): less product; linear peptide production by S. vaccaria PCY1 (in words) (S. vaccaria PCY1): highest amount of linear peptide product; CP (cyclic peptide product detected by LC/MS after in vitro assay) (S. vaccaria PCY1): +; LP (linear peptide product detected by LC/MS after in vitro assay) (S. vaccaria PCY1): +; cyclic peptide production by D. superbus PCY1-c250 (in words) [2]: no detectable cyclic peptide; linear peptide production by D. superbus PCY1-c250 (in words) [2]: a large amount of linear peptide was detected

Q: “Presegetalin A1[14,32] (GVPVWAFQAKDVENASAPV; listed as Saponaria vaccaria) [No. 1]” was tested. Which “cyclic peptide production by S. vaccaria PCY1 (in words)” value (S. vaccaria PCY1) did it give?
A: showed the formation of segetalin A

Q: What about the “linear peptide production by S. vaccaria PCY1 (in words)” value (S. vaccaria PCY1) of the same substance?
A: linear segetalin A

Q: What about the “cyclic peptide production by D. superbus PCY1-c250 (in words)” value [2] of the same substance?
A: strong enzymatic activity

Q: And the “cyclic peptide production by D. superbus PCY1-c1141 (in words)” value [1]?
A: strong enzymatic activity

Q: What about the “production of segetalin A by Silene vulgaris c150 polypeptide (in words)” value [3] of the same substance?
A: weaker than that of S. vaccaria PCY1

Q: What does the source list for “31 (GV[dP]VAAFQAKDVENASAPV) [compound 31]”?
A: cyclic peptide production by S. vaccaria PCY1 (in words) (S. vaccaria PCY1): made cyclic peptides; CP (cyclic peptide product detected by LC/MS after in vitro assay) (S. vaccaria PCY1): +; LP (linear peptide product detected by LC/MS after in vitro assay) (S. vaccaria PCY1): −; cyclic peptide production by D. superbus PCY1-c1141 (in words) [1]: made cyclic peptides

Q: With “38 (GVKYAFQPKDSENASAPV; Presegetalin G1[14,31]) [compound 38]” as the substance, how does the “cyclic peptide production by S. vaccaria PCY1 (in words)” value (S. vaccaria PCY1) read?
A: cyclic peptide products were detected from all of them

Q: What about the “CP” value (S. vaccaria PCY1) of the same substance?
A: +

Q: What about the “LP” value (S. vaccaria PCY1) of the same substance?
A: −

Q: Which “cyclic peptide production by S. vaccaria PCY1 (in words)” value (S. vaccaria PCY1) does the source give for “14 (GVPVWAFAAKDVENASAPV; Presegetalin A1[14,32] Q21A) [compound 14]” here?
A: sensitive

Q: And the “CP” value (S. vaccaria PCY1)?
A: +

Q: And the “LP” value (S. vaccaria PCY1)?
A: +

Q: For “28 (GVP[dV]WAFQAKDVENASAPV) [compound 28]”, which “CP” value (S. vaccaria PCY1) is on record?
A: +

Q: And the “LP” value (S. vaccaria PCY1)?
A: −

Q: “24 (GVPVWAFQAKDVENASAAV; Presegetalin A1[14,32] P31A) [compound 24]” was tested. Which “cyclic peptide production by S. vaccaria PCY1 (in words)” value (S. vaccaria PCY1) did it give?
A: sensitive

Q: What about the “segetalin A production, times lower than the WT substrate” value (S. vaccaria PCY1; alanine scanning mutants of C-terminal region, FIG. 9) of the same substance?
A: 11 times

Q: And the “CP” value (S. vaccaria PCY1)?
A: +

Q: What about the “LP” value (S. vaccaria PCY1) of the same substance?
A: +

Q: “26 (G[dV]PVWAFQAKDVENASAPV) [compound 26]” was tested. Which “CP” value (S. vaccaria PCY1) did it give?
A: +

Q: What about the “LP” value (S. vaccaria PCY1) of the same substance?
A: +

Q: Which results are given for “41 (FSASYSSKPIQTQVSNGMDNASAPV; Presegetalin F1[14,38]) [compound 41]”?
A: cyclic peptide production by S. vaccaria PCY1 (in words) (S. vaccaria PCY1): cyclic peptide products were detected from all of them; CP (cyclic peptide product detected by LC/MS after in vitro assay) (S. vaccaria PCY1): +; LP (linear peptide product detected by LC/MS after in vitro assay) (S. vaccaria PCY1): −

Q: For “23 (GVPVWAFQAKDVENASVPV; Presegetalin A1[14,32] A30V) [compound 23]”, which “CP” value (S. vaccaria PCY1) is on record?
A: +

Q: What about the “LP” value (S. vaccaria PCY1) of the same substance?
A: +

Q: With “Presegetalin A1[14,32]F20A (GVPVWAAQAKDVENASAPV; Presegetalin A1[14,32] F20A) [No. 13]” as the substance, how does the “linear peptide production by S. vaccaria PCY1 (in words)” value (S. vaccaria PCY1) read?
A: presence of linear peptide was confirmed by MS/MS analysis

Q: With “Presegetalin A1[14,32]W18w (GVPV[dW]AFQAKDVENASAPV) [No. 29]” as the substance, how does the “cyclic peptide production by S. vaccaria PCY1 (in words)” value (S. vaccaria PCY1) read?
A: relatively weakly converted to cyclic peptide

Q: For “36 (GLSFAFPAKDAENASSPV; Presegetalin D1[14,31]) [compound 36]”, which “cyclic peptide production by S. vaccaria PCY1 (in words)” value (S. vaccaria PCY1) is on record?
A: cyclic peptide products were detected from all of them

Q: And the “CP” value (S. vaccaria PCY1)?
A: +

Q: What about the “LP” value (S. vaccaria PCY1) of the same substance?
A: +
